# Measured values as given in US8008093B2, “Inhibition of Hsp27 phosphorylation for the treatment of blistering disorders” (The University of North Carolina at Chapel Hill, priority 2004, dated 2011).
# “Also recorded” adds a separate entry of the source.
# What was measured:
# HSP27 = assay: PV IgG induced HSP27 phosphorylation in keratinocytes, immunoblot; settings: preincubated 60 mins at 37° C. with inhibitor, then 25 μM PV IgG 30 mins
# Method: Cells were preincubated for 60 minutes at 37° C. with the p38MAPK inhibitors SB202190 or SB203580, the protein kinase C inhibitors Calphostin C or H-7, or the phospholipase C inhibitor U-73122. PV IgG (25 μM) was then added and the cells were incubated for 30 mins at 37° C., and harvested in IEF lysis buffer. Extracts were separated on 10% SDS-PAGE gels followed by immunoblotting with anti-HSP27 and anti-phosphoHSP27 antibodies.
# For inhibition studies, keratinocytes were preincubated for 60 mins at 37° C. with the p38MAPK inhibitors SB202190 (100 μM) or H-7 (10 μM), or the phospholipase C inhibitor U-73122 (4 μM), after which PV IgG was added to a final concentration of 25 μM, the cells incubated for 30 mins at 37° C., and harvested in IEF lysis buffer.
# p38MAPK = p38MAPK phosphorylation in mouse skin extracts, immunoblot; type: in vivo; settings: PV IgG 1.0 mg IgG/g intradermally; SB202190 6.25 μg twice; skin biopsies after 18 hours
# Excerpt: FIG. 7A is an immunoblot showing LDH control, PV IgG, and PV IgG+SB202190 first equally loaded on and separated by SDS-PAGE, transferred to PVDF, and immunoblotted with antibodies to p38MAPK, phospho-p38MAPK or lactate dehydrogenase (LDH) as a loading control. Blots were developed by ECL reaction (Amersham, Piscataway, N.J., United States of America).
# FIG. 7B is a bar graph illustrating signal intensity from the ECL reaction for each band from the immunoblot of FIG. 7A, quantified with a GeneGnome™ scanner (Syngene Bio Imaging, Frederick, Md., United States of America) using GeneSnap™ software (n=3, S.D. shown by error bars).
# keratinocytes = assay: Keratin and actin reorganization in keratinocytes, confocal microscopy; type: cell-based, human; settings: 25 μM PV IgG 6 hrs at 37° C.; SB202190 100 μM preincubated 60 mins
# Method: FIGS. 5A-5C are data showing that PV IgG induced cytoskeletal reorganization can be prevented by inhibiting p38MAPK. […] Cells were stained with the indicated antibodies or fluorescein-phalloidin and analyzed by confocal microscopy.
# At 37° C. Cells were fixed and stained with flourescein conjugated phalloidin (Molecular Probes, Eugene, Oreg., United States of America), pancytokeratin antibodies (clone AE1/AE3, Zymed, San Francisco, Calif., United States of America), or goat anti-human E-cadherin antibodies (R & D Systems, mc, Minneapolis, Minn., United States of America) as previously described (Hu et al., (2001) Experimental Nephrology 9, 156-164), followed by Cy2 and Cy3 conjugated secondary antibodies (Jackson Laboratories, West Grove, Pa., United States of America). Images were analyzed using a Leica SP2 AOBS confocal microscope (Leica, Bannockburn, Ill., United States of America) with an excitation wavelength of 488 nm and capture at 500-550 nm or an excitation wavelength of 561 nm and capture at 590-650 nm using a 63×objective with NA 1.4. Double labeled samples were checked for bleed though by turning off the longer wavelength laser and assaying for the absence of image. For 3 dimensional image reconstructions, serial sections were scanned at 0.244 μm and rendered using the program Volocity Version 3 (Improvision, Lexington, Mass., United States of America).
# HSP25 = HSP25 phosphorylation in mouse skin extracts, 2D immunoblot; type: in vivo; settings: PV IgG 1.0 mg IgG/g intradermally; SB202190 6.25 μg twice; skin biopsies after 18 hours
# Method: Skin biopsies were obtained after 18 hours of treatment and extracted in IEF lysis buffer.
# FIG. 7C is an autoradiogram of an immunoblot showing cell extracts (30 μg) prepared and separated in the first dimension using 7 cm pH 4-7, non-linear IPGphor strips (Amersham Biosciences, Inc.) and in the second dimension by 10% SDS-PAGE followed by immunoblotting with antibodies to murine HSP25 using methods known in the art (see Berkowitz et al. (2005) J Biol Chem 280, 23778-23784). […] P values were calculated using student's T-test.
# [1] = system: epidermal keratinocyte cell membranes; assay: Direct immunofluorescence of perilesional skin for bound PV IgG; settings: direct immunofluorescence of mouse skin, PV IgG+SB202190 vs PV IgG
# Excerpt: Perilesional skin biopsies were examined by direct immunofluorescence for the presence of PV IgG bound to the epidermal epithelium.
# neonatal C57BL/6J mice = assay: Passive transfer PV mouse model, blister formation; type: in vivo
# Excerpt: The passive transfer PV mouse model developed by Anhalt and Diaz (Anhalt, et al. (1992) New England Journal of Medicine 306, 1189-1196) was used to test the hypothesis that p38MAPK inhibitors can block blister formation in vivo. In this model, the IgG fraction from patients and control non-affected normal individuals was purified and passively transferred into neonatal mice (Anhalt, et al. (1992) New England Journal of Medicine 306, 1189-1196; Rock, et al. (1990) J of Clinical Investigation 85, 296-299).
# For in vivo inhibitor studies, the mice were injected intradermally with PV and normal IgG (1.0 or 1.5 mg/gram body weight) as disclosed in Mascaro et al. (Clin Immunology & Immunopathology 85, 90-96 (1997)). The P38 MAPK inhibitors were administered intradermally in two doses. In the first dose, 6.25 μg SB202190 was administered two hours prior to intradermal injection of IgG. In the second dose, 6.25 μg SB202190 was mixed with PV or control IgG and injected intradermally. Each animal received a total inhibitor dose of 12.5 μg.
# [2] = PV IgG intradermally, SB202190 two doses of 6.25 μg intradermally, after 18 hours
# [3] = histology, PV IgG intradermally, SB202190 two doses of 6.25 μg intradermally, after 18 hours
compound,measurement,setting,value
CC1CNCCN1S(=O)(=O)c1cccc2cnccc12 (stereo not drawn) [H-7],inhibition of PV IgG induced HSP27 phosphorylation,HSP27,No notable inhibition
"Oc1ccc(-c2nc(-c3ccc(F)cc3)c(-c3ccncc3)[nH]2)cc1 [SB202190, 4-(4-Fluorophenyl)-2-(4-hydroxyphenyl)-5-(4-pyridyl)1H-imidazole]",p38MAPK phosphorylation in skin extracts,p38MAPK,prevented; also recorded: blocked
same,actin reorganization (phalloidin staining),keratinocytes,similarly prevented; also recorded: inhibited
same,keratin filament retraction,keratinocytes,prevented
same,phosphorylation of the most negatively charged HSP25 isoform in skin extracts,HSP25,inhibited; also recorded: blocked
same,effect on binding of PV autoantibodies to epidermal keratinocyte cell surface,[1],did not prevent or alter the binding; also recorded: does not prevent binding
same,suprabasal acantholysis leading to blister formation,"neonatal C57BL/6J mice; PV IgG 1 mg IgG/g body weight, skin biopsies, hematoxylin and eosin",blocked
same,Nikolsky's sign,"neonatal C57BL/6J mice; PV IgG 1.5 mg IgG/gram body weight intradermally, examined 18 hours later",negative Nikolsky's sign
same,"blister development, clinically and histologically","neonatal C57BL/6J mice; PV IgG 1.0 or 1.5 mg/gram body weight intradermally, SB202190 total 12.5 μg, after 18 hours",failed to develop blisters
same,Numbers of Mice with Nikolsky Sign: Nikolsky Negative,neonatal C57BL/6J mice; [2],11
same,Numbers of Mice with Nikolsky Sign: Nikolsky Positive,neonatal C57BL/6J mice; [2],1
same,Numbers of Mice with Suprabasilar Acantholysis: Blisters Present,neonatal C57BL/6J mice; [3],1
same,Numbers of Mice with Suprabasilar Acantholysis: No Blisters,neonatal C57BL/6J mice; [3],11
COc1ccc2c(c1)CC[C@@H]1[C@@H]2CC[C@]2(C)[C@@H](NCCCCCCN3C(=O)C=CC3=O)CC[C@@H]12 [U-73122],inhibition of PV IgG induced HSP27 phosphorylation,HSP27,No notable inhibition
Calphostin C,inhibition of PV IgG induced HSP27 phosphorylation,HSP27,No notable inhibition
